Source: US4545932A, “Glucosaminyl muramyl peptide derivatives” (Dainippon Pharmaceutical Co., Ltd., priority 1982, dated 1985)

Assays:
Type in all cases: in vivo
Candida albicans 3170 = assay: Prophylactic effect on experimental infection, Candida albicans; conditions: Std-ddY male mice, 7 days after infection
From the text: (§1) Std-ddY male mice weighing about 23 g (each group: 8 mice) were used. Test compounds dissolved in a physiological saline solution were each intravenously administered to mice once a day 1, 2 and 3 days before the infection. Twenty-four hours after the final administration of test compounds, the mice were infected with various microorganisms suspended in saline (in case of Staphylococcus aureus and Candida albicans) or in Trypto-Soy Broth (manufactured by Eiken Chemical Co., Ltd., Japan) (in case of Pseudomonas aeruginosa and Escherichia coli) under the conditions as shown in Table 1. When the experiment was repeated twice or more, the data were pooled.
3170 fungal sus- infection
(§2) ^a Test compounds were intravenously administered once a day 1, 2 and
(§3) 3 days before infection.
(§4) ^b Figures represent (number of survivals)/(number of animals tested)
(§5) and figures in parenthesis represent percent survival.

[1] = test system: Staphylococcus aureus No. 50774; assay: Prophylactic effect on experimental infection, Staphylococcus aureus; conditions: Std-ddY male mice, 14 days after infection
From the text: as §1, §2, §3, §4, §5

various microorganisms = assay: Antiinfectious effect in mice; conditions: summary of Table 2; mice
From the text: as §1
Besides, as to the compounds of Examples 8, 18, 36, 37 and 45 (derivatives of GMP3 -A), similar experiments were done.

Pyrogenicity in rabbits = conditions: for Pyrogenicity in rabbits: injected into ear vein, three rabbits per group
Experimental: Rabbits (each group: three rabbits) were used. Test compounds dissolved in a physiological saline solution were each injected into ear vein of rabbits. The difference between maximum body temperature within three hours after the injection of test compound and the body temperature before the injection was regarded as rise in body temperature. The degree of pyrogenicity was evaluated according to the following criterion: […]

Acute toxicity in mice = conditions: mortality for 14 days
Experimental: Male and female ICR mice aged about 6 weeks (each group: 8 mice) were used. The compound of Example 15 was dissolved in distilled water and administered to mice. Mortality was checked for 14 days and LD50 was calculated by probit method.

Escherichia coli P-5101 = assay: Prophylactic effect on experimental infection, Escherichia coli; conditions: Std-ddY male mice, 7 days after infection
From the text: as §1, §2, §3, §4, §5

[2] = test system: Pseudomonas aeruginosa No. 12; assay: Prophylactic effect on experimental infection, Pseudomonas aeruginosa; conditions: Std-ddY male mice, 7 days after infection
From the text: as §1, §2, §3, §4, §5

[3] = Dose 0.8 mg/kg i.v. once a day 1, 2 and 3 days before infection
[4] = Dose 3.1 mg/kg i.v. once a day 1, 2 and 3 days before infection
[5] = Dose 12.5 mg/kg i.v. once a day 1, 2 and 3 days before infection
[6] = Dose 50 mg/kg i.v. once a day 1, 2 and 3 days before infection
[7] = Dose 0.05 mg/kg i.v. once a day 1, 2 and 3 days before infection
[8] = Dose 0.125 mg/kg i.v. once a day 1, 2 and 3 days before infection
[9] = Dose 0.2 mg/kg i.v. once a day 1, 2 and 3 days before infection
[10] = Dose 0.0125 mg/kg i.v. once a day 1, 2 and 3 days before infection

Q: Which “(number of survivals)/(number of animals tested)” value (Candida albicans 3170; [3]) does the source give for CCCCCCCCCCCCCCCCCC(=O)NC(CCCC(NC(=O)CCC(NC(=O)C(C)NC(=O)C(C)OC1C(NC(C)=O)C(O)OC(CO)C1OC1OC(CO)C(O)C(O)C1NC(C)=O)C(N)=O)C(=O)NC(C)C(=O)[O-])C(N)=O.[Na+] [Example 15, sodium β-N-acetylglucosaminyl(1→4)-N-acetylmuramyl-L-alanyl-D-isoglutaminyl-(L)-stearoyl-(D)-meso-2,6-diaminopimelic acid-(D)-amide(L)-D-alanate] here?
A: 3/8

Q: What about the percent survival (Candida albicans 3170; [3]) of the same molecule?
A: 37.5%

Q: And the “(number of survivals)/(number of animals tested)” value (Candida albicans 3170; [4])?
A: 4/8

Q: What about the percent survival (Candida albicans 3170; [4]) of the same molecule?
A: 50%

Q: What about the “(number of survivals)/(number of animals tested)” value (Candida albicans 3170; [5]) of the same molecule?
A: 4/8

Q: And the percent survival (Candida albicans 3170; [5])?
A: 50%

Q: And the “(number of survivals)/(number of animals tested)” value (Candida albicans 3170; [6])?
A: 7/8

Q: What about the percent survival (Candida albicans 3170; [6]) of the same molecule?
A: 87.5%

Q: And the “(number of survivals)/(number of animals tested)” value [1, 7]?
A: 9/16

Q: And the percent survival [1, 7]?
A: 56.3%

Q: What about the “(number of survivals)/(number of animals tested)” value [1, 8] of the same molecule?
A: 3/16

Q: What about the percent survival [1, 8] of the same molecule?
A: 18.8%

Q: What about the “(number of survivals)/(number of animals tested)” value [1, 9] of the same molecule?
A: 13/16

Q: And the percent survival [1, 9]?
A: 81.3%

Q: What about the “(number of survivals)/(number of animals tested)” value [1, 3] of the same molecule?
A: 13/16

Q: What about the percent survival [1, 3] of the same molecule?
A: 81.3%

Q: And the “(number of survivals)/(number of animals tested)” value [1, 4]?
A: 15/16

Q: What about the percent survival [1, 4] of the same molecule?
A: 93.8%

Q: What about the “(number of survivals)/(number of animals tested)” value [1, 5] of the same molecule?
A: 13/16

Q: What about the percent survival [1, 5] of the same molecule?
A: 81.3%

Q: And the “antiinfectious effect compared with GMP4 -A” value (various microorganisms)?
A: more potent antiinfectious effect

Q: And the Pyrogenicity in rabbits (Pyrogenicity in rabbits; Dose 0.1 mg/rabbit)?
A: - (one animal showed rise in body temperature of 0.6 °C or more)

Q: What about the Pyrogenicity in rabbits (Pyrogenicity in rabbits; Dose 0.3 mg/rabbit) of the same molecule?
A: - (one animal showed rise in body temperature of 0.6 °C or more)

Q: What about the Pyrogenicity in rabbits (Pyrogenicity in rabbits; Dose 1 mg/rabbit) of the same molecule?
A: - (one animal showed rise in body temperature of 0.6 °C or more)

Q: And the Pyrogenicity in rabbits (Pyrogenicity in rabbits; Dose 3 mg/rabbit)?
A: ± (one animal showed rise in body temperature of 0.6 °C or more)

Q: And the Pyrogenicity in rabbits (Pyrogenicity in rabbits; Dose 10 mg/rabbit)?
A: + (two or more animals showed rise in body temperature of 0.6 °C or more)

Q: What about the “pyrogenicity compared with GMP4 -A” value (Pyrogenicity in rabbits; summary of Table 3, rabbits) of the same molecule?
A: less pyrogenicity than GMP4 -A

Q: And the LD50 (Acute toxicity in mice; i.p., female ICR mice)?
A: > 600 mg/kg

Q: What about the LD50 (Acute toxicity in mice; i.p., male ICR mice) of the same molecule?
A: > 600 mg/kg

Q: And the LD50 (Acute toxicity in mice; i.v., female ICR mice, probit method, 95% confidence limits in parenthesis)?
A: 266 (237-297) mg/kg

Q: And the LD50 (Acute toxicity in mice; i.v., male ICR mice, probit method, 95% confidence limits in parenthesis)?
A: 292 (261-328*) mg/kg

Q: What about the LD50 (Acute toxicity in mice; p.o., female ICR mice) of the same molecule?
A: > 3000 mg/kg

Q: And the LD50 (Acute toxicity in mice; p.o., male ICR mice)?
A: > 3000 mg/kg

Q: And the LD50 (Acute toxicity in mice; s.c., female ICR mice)?
A: > 600 mg/kg

Q: And the LD50 (Acute toxicity in mice; s.c., male ICR mice)?
A: > 600 mg/kg

Q: And the “(number of survivals)/(number of animals tested)” value (Escherichia coli P-5101; [7])?
A: 6/16

Q: What about the percent survival (Escherichia coli P-5101; [7]) of the same molecule?
A: 37.5%

Q: What about the “(number of survivals)/(number of animals tested)” value (Escherichia coli P-5101; [9]) of the same molecule?
A: 7/16

Q: What about the percent survival (Escherichia coli P-5101; [9]) of the same molecule?
A: 43.8%

Q: And the “(number of survivals)/(number of animals tested)” value (Escherichia coli P-5101; [3])?
A: 10/16

Q: What about the percent survival (Escherichia coli P-5101; [3]) of the same molecule?
A: 62.5%

Q: And the “(number of survivals)/(number of animals tested)” value (Escherichia coli P-5101; [4])?
A: 11/16

Q: What about the percent survival (Escherichia coli P-5101; [4]) of the same molecule?
A: 68.8%

Q: What about the “(number of survivals)/(number of animals tested)” value (Escherichia coli P-5101; [5]) of the same molecule?
A: 11/16

Q: What about the percent survival (Escherichia coli P-5101; [5]) of the same molecule?
A: 68.8%

Q: What about the “(number of survivals)/(number of animals tested)” value (Escherichia coli P-5101; [6]) of the same molecule?
A: 7/8

Q: What about the percent survival (Escherichia coli P-5101; [6]) of the same molecule?
A: 87.5%

Q: And the “(number of survivals)/(number of animals tested)” value [2, 10]?
A: 12/32

Q: What about the percent survival [2, 10] of the same molecule?
A: 37.5%

Q: What about the “(number of survivals)/(number of animals tested)” value [2, 7] of the same molecule?
A: 14/32

Q: And the percent survival [2, 7]?
A: 43.8%

Q: What about the “(number of survivals)/(number of animals tested)” value [2, 9] of the same molecule?
A: 15/32

Q: And the percent survival [2, 9]?
A: 46.9%

Q: What about the “(number of survivals)/(number of animals tested)” value [2, 3] of the same molecule?
A: 14/24

Q: What about the percent survival [2, 3] of the same molecule?
A: 58.3%

Q: What about the “(number of survivals)/(number of animals tested)” value [2, 4] of the same molecule?
A: 14/16

Q: And the percent survival [2, 4]?
A: 87.5%

Q: What about the “(number of survivals)/(number of animals tested)” value [2, 5] of the same molecule?
A: 8/8

Q: What about the percent survival [2, 5] of the same molecule?
A: 100%
